Earlier results, collected in US20110071071A1, “PSMB10: A DIAGNOSIS MARKER AND THERAPEUTIC TARGET OF CHRONIC REJECTION” (priority 2008, published 2011).

Columns and labels:
20S proteasome = 20S proteasome (Homo sapiens, UniProt P28072+P28074+Q99436); settings: all three catalytic sites
[1] = molecular target: T1, chymotrypsin-like activity of the purified 20S proteasome (Homo sapiens, UniProt P28074); settings: in vitro
T1 sequence (P28074 60-263): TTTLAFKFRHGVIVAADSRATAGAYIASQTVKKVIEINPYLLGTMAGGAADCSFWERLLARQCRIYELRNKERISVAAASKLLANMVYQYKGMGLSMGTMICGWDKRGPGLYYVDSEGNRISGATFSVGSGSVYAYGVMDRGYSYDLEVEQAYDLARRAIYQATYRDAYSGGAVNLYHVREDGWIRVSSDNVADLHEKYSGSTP

[2] = test system: murine neuroblastoma cell line Neuro-2a; settings: Neuro-2a cells

C[C@@]12OC(=O)[C@]1([C@@H](O)[C@@H]1C=CCCC1)NC(=O)[C@@H]2CCCl [NPI-0052, salinosporamide A]
20S proteasome inhibition (20S proteasome): highly potent and selective 20S proteasome inhibitor with irreversible activity against all three catalytic sites

O=C(OC1Cc2c(O)cc(O)cc2OC1c1cc(O)c(O)c(O)c1)c1cc(O)c(O)c(O)c1 (single isomer, unassigned; (-)) [(−)-EGCG, (−)-epigallocatechin 3-gallate]
inhibition of chymotrypsin-like (CT-L) activity of the 20S proteasome [1]: inhibiting the chymotrypsin-like activity

CC(=O)N[C@@H](CSC(=O)[C@]1([C@@H](O)C(C)C)NC(=O)[C@H](C)[C@@H]1O)C(=O)O [lactacystin]
neurite outgrowth [2]: induce neurite outgrowth
